Our source for the GI50 and TGI values is PubChem BioAssay (NCI).

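Assay format: 96-well plates, 48-hour exposure. GI50 is the concentration that inhibits growth by half. TGI: concentration producing complete growth inhibition.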

What all share (experiment): NCI tumour cell line growth inhibition, 48 h
Assay [1] relates to EKVX NSCLC.
The test system of assay [2] is RPMI-8226 leukemia.
In assay [3] the test system is RXF 393 renal.
Assay [4] concerns 786-0 renal.
The subject of assay [5] is SK-MEL-2 melanoma.
Assay [6] relates to HS 578T breast.
The test system of assay [7] is ACHN renal.
Assay [8] relates to SK-MEL-5 melanoma.
Assay [9] has as its system K-562 leukemia.
Assay [10] relates to HCC-2998 colon.

Regarding `COC(=O)c1ccc(NC(N)=NCC(C)(C)COc2ccc(C(F)(F)F)cc2)nc1`, the GI50 was 1.43 µM in assay [1]; 1.3 µM in assay [2]; 1.49 µM in assay [3]; 1.46 µM in [4]; 1.86 µM in assay [5]; 1.97 µM in [6]. Besides, the GI50 in [7] is 1.59 µM. Also, the TGI in assay [1] is 3.41 µM; in assay [2], 3.64 µM; in assay [3] it was 2.96 µM; in [4], 2.83 µM; in assay [5], 3.47 µM; in assay [6] it was 4.33 µM. Also, the TGI in assay [7] came to 2.93 µM.

With `C[n+]1cc2cc3c(cc2c2ccccc21)OCO3`, the GI50 in assay [8] was 2.71 µM; in [2], 3.39 µM; in assay [3] it was 16.4 µM; in assay [9] it was 7.24 µM; in assay [10], 3.81 µM; in [4] it was 12.4 µM. The GI50 in [5] is 3.51 µM; in [6], 2 µM; in [7] it was 41.7 µM. Besides, the TGI is 14.3 µM in [8]; 36.4 µM in [2]; > 100 µM in assay [3]; > 100 µM in [9]; 19.2 µM in assay [10]; > 100 µM in assay [4]. Also, the TGI in [5] was 11.3 µM; in assay [6] it was 7.71 µM; in [7], > 100 µM.

Turning to `C/C(=C1/N=C(c2ccccc2)OC1=O)c1ccccc1`, the TGI was > 100 µM in assay [1]; > 100 µM in assay [8]; 68.4 µM in assay [2]; > 100 µM in assay [9]; > 100 µM in assay [10]; > 100 µM in assay [4]. The TGI in [5], in assay [6] and in assay [7] was > 100 µM throughout.

On to `COc1ccccc1Nc1nc2ccccc2c2occc12`, for which the GI50 in assay [1] was 11.9 µM; in [8] it was 12.2 µM; in assay [2] it was 20.6 µM; in assay [3] it was 13.1 µM; in [9], 12.9 µM; in assay [4], 15.3 µM. Also, the GI50 is 12 µM in assay [5], 22.1 µM in assay [6] and 10.6 µM in assay [7]. In addition, the TGI is 28.1 µM in assay [1]; 27.7 µM in [8]; > 50 µM in [2]; 23.9 µM in assay [3]; 28 µM in assay [9]; 38.7 µM in assay [4]. The TGI in assay [5] came out at 28.2 µM; in assay [6], 49 µM; in assay [7], 24.8 µM.

Take `CC(=O)N1N=C(c2ccc(Nc3nc(Nc4ccc(F)cc4)nc(Nc4ccc(Cl)cc4)n3)cc2)CC1c1ccc(N(C)C)cc1` (stereo not given): the GI50 in [1] was 8.06 µM; in assay [8], 6.68 µM; in assay [2] it was 4.15 µM; in [3], 1.63 µM; in [9], > 32.4 µM; in [10], 2.26 µM. The GI50 is 3.65 µM in assay [4], 8.09 µM in assay [6] and 4.03 µM in [7]. Also, the TGI was > 90.9 µM in assay [1]; 19.3 µM in assay [8]; > 100 µM in [2]; 5.33 µM in assay [3]; > 81.9 µM in [9]; 7.45 µM in assay [10]. Also, the TGI was 13.7 µM in assay [4], 97.9 µM in [6] and > 58.4 µM in assay [7].

In the case of `Oc1cc2c(cc1C(c1ccc3c(c1)OCO3)N1CCN(C(c3ccc4c(c3)OCO4)c3cc4c(cc3O)OCO4)CC1)OCO2` (stereo not given), the TGI in assay [1] was 98.6 µM; in assay [8], 37.9 µM; in assay [3], > 100 µM; in [9], 65.1 µM; in assay [4], 25.8 µM; in assay [5], 41.6 µM. Besides, the TGI in assay [6] came out at 30.5 µM; in assay [7] it was 26.6 µM.

As to `COc1cc2oc(-c3cccc(C(=O)Nc4ccc(C)cc4)c3)cc(=O)c2c(OC)c1OC`, the GI50 in assay [8] is 1.03 µM; in assay [2], 0.374 µM; in assay [3], 0.775 µM; in assay [9] it was 3.4 µM; in assay [10], 3.53 µM; in assay [4], 2.06 µM. Besides, the GI50 is 3.33 µM in [5], 4.61 µM in assay [6] and 2.69 µM in [7]. Also, the TGI was 2.42 µM in assay [8]; 3.54 µM in assay [2]; 5.91 µM in assay [3]; > 100 µM in assay [9]; 17.8 µM in assay [10]; 6.11 µM in assay [4]. Further, the TGI in [5] is 9.55 µM; in [6] it was > 100 µM; in assay [7], > 100 µM.

For `COC(=O)[C@@H]1[C@H](O)[C@H](C)[C@H](O)[C@H](C)/C=C\C=C(C)C(=O)Nc2c(C)c(OC(C)=O)c3c(c2O)C(=O)C(C)=C2OCOC(=C23)C(C)=C[C@@](C)(O)[C@H](O)[C@@H](C)[C@H]1OC(C)=O`, the TGI was > 100 µM in [1]; > 100 µM in assay [8]; 56.9 µM in assay [2]; > 100 µM in assay [3]; > 100 µM in assay [9]; > 100 µM in assay [4]. For the same compound, the TGI in assay [6] and in assay [7] was > 100 µM in each case.

In the case of `CC(=O)Oc1ccccc1C(=O)NCCC[Se]C#N`, the GI50 in [2] was 2.41 µM; in assay [3], 2.67 µM; in assay [9], 3.46 µM; in [10], 3.54 µM; in assay [4], 2.1 µM; in assay [5], 2.55 µM. Besides, the GI50 is 2.12 µM in assay [6] and 2.29 µM in assay [7]. In addition, the TGI came out at 6.04 µM in [2]; 6.7 µM in assay [3]; 21.1 µM in assay [9]; 14.9 µM in [10]; 4.38 µM in assay [4]; 5.64 µM in assay [5]. In addition, the TGI in assay [6] is 6.8 µM; in assay [7] it was 4.3 µM.

Take `OCC#CCCCCOCC#Cc1ccccc1C#CCOCCCCC#CCO`: the GI50 in assay [1] is 17.8 µM; in [8] it was 15.1 µM; in assay [2], 29.3 µM; in [3], 31.8 µM; in assay [9], 22.3 µM; in assay [4], 36.9 µM. Also, the results for the GI50 in assay [5], in assay [6] and in [7] were 51.1 µM, 25 µM and 21.7 µM, respectively. Further, the TGI in [1] was 41.3 µM; in [8] it was 30.5 µM; in [2], 87.8 µM; in assay [3], 96.9 µM; in assay [9] it was 65.6 µM; in assay [4], > 100 µM. Moreover, the TGI is > 100 µM in assay [5], 65.4 µM in assay [6] and 58.7 µM in assay [7].
